For orientation: EC50 means the concentration needed to bring the measured effect to its halfway point.

Like-named read-outs stand apart in the source and are kept apart here.

This test addresses human NAMPT (Homo sapiens, UniProt P43490). Kind of test: Human recombinant enzyme assay (NMN fluorescence biochemical assay, activation of NAMPT). An outline of the steps:
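NMN production is detected fluorometrically (Ex 355/Em 460 nm) 40 min after acetophenone, KOH and formic acid derivatization. Reactions ran 60 min at ambient temperature: 6 nM human NAMPT, nicotinamide 150 μM, PRPP 20 μM, ATP 2.5 mM, buffered at pH 7.2 with 50 mM HEPES plus DTT, CHAPS, NaCl and 100 mM MgCl2.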

The mark [1] stands for this setting: Table A, human recombinant NAMPT, NMN formation, 60 min.
Setting [2] is: Table A, human recombinant NAMPT, NMN formation, 60 min, read-out: EC50 Human.

human NAMPT, sequence (P43490 whole entry): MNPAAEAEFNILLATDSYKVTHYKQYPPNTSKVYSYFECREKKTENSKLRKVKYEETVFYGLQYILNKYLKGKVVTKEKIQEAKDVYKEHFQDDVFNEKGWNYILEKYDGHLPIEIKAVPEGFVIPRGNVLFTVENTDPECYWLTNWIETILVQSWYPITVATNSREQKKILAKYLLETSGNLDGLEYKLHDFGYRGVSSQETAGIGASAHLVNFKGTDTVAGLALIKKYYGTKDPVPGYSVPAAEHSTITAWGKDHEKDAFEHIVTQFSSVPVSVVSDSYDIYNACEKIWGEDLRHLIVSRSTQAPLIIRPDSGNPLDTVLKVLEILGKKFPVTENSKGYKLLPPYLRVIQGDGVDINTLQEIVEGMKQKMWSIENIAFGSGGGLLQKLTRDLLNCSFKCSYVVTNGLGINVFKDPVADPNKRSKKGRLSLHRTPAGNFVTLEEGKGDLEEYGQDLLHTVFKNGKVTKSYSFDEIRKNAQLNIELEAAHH

With `O=C(NCc1ccc(Cl)cc1)N[C@H]1C[C@]2(CCN(C(=O)N3CCC(N4CCCCC4)CC3)C2)C1` [Compound 354, 1-((2r,4s)-6-([1,4′-bipiperidine]-1′-carbonyl)-6-azaspiro[3.4]octan-2-yl)-3-(4-chlorobenzyl)urea], the “AC1.4 Human” value under setting [1] stood at 4.2 µM.
On to `COc1ccc(CNC(=O)NC2CC3(CC(Cc4cccc(C)c4)C3)C2)cc1` (stereo not drawn) [Compound 335, 1-(4-Methoxybenzyl)-3-(6-(3-methylbenzyl)spiro[3.3]heptan-2-yl)urea], for which the “AC1.4 Human” value under setting [1] stood at 1.1 µM. Also, under setting [2], the EC50 was found to be 2.2 µM.
For `Cc1cccc(N2CC[C@]3(C2)C[C@@H](NC(=O)NCc2ccc(Cl)cc2)C3)n1` [Compound 183, 1-(4-chlorobenzyl)-3-((2r,4s)-6-(6-methylpyridin-2-yl)-6-azaspiro[3.4]octan-2-yl)urea], in that order: 11.2 µM and 56 µM.
For `COc1ccc(CNC(=O)NC2CC3(C2)CC(NC(=O)c2ccccc2)C3)cc1` (stereo not drawn) [Compound 18, N-(6-(3-(4-methoxybenzyl)ureido)spiro[3.3]heptan-2-yl)benzamide], in that order: 18.9 µM and 60.2 µM.
For `COc1ccc(CNC(=O)NC2CC3(C2)CN(S(=O)(=O)CCc2ccccc2Cl)C3)cc1` [Compound 118, 1-(2-((2-chlorophenethyl)sulfonyl)-2-azaspiro[3.3]heptan-6-yl)-3-(4-methoxybenzyl)urea], in that order: 3.0 µM and 14.2 µM.
In the case of `CC1(C)CCC(NC(=O)NCc2ccc(C(N)=O)cc2)CC1` [Compound 3, 4-((3-(4,4-dimethylcyclohexyl)ureido)methyl)benzamide], the “AC1.4 Human” value under setting [1] came out at 17.5 µM. Besides, the EC50 under setting [2] was found to be 41.4 µM.
For `COc1ccc(CNC(=O)NC2CC3(C2)CN(C(=O)c2ccc(C#N)cc2)C3)cc1` [Compound 156, 1-(2-(4-cyanobenzoyl)-2-azaspiro[3.3]heptan-6-yl)-3-(4-methoxybenzyl)urea], in that order: 11.0 µM and 45.8 µM.
For `O=C(NCc1ccc(Cl)cc1)NC1CC2(C1)CC(OCc1ccncc1)C2` (stereo not drawn) [Compound 348, 1-(4-chlorobenzyl)-3-(6-(pyridin-4-ylmethoxy)spiro[3.3]heptan-2-yl)urea], in that order: 5.0 µM and 5.9 µM.
Turning to `Cc1ccc(C(=O)N2CC[C@]3(C2)C[C@@H](NC(=O)NCc2ccc(Cl)cc2)C3)cc1` [Compound 159, 1-(4-chlorobenzyl)-3-((2r,4s)-6-(4-methylbenzoyl)-6-azaspiro[3.4]octan-2-yl)urea], under setting [1], the “AC1.4 Human” value is 8.7 µM. For the same compound, the EC50 under setting [2] turned out to be 23.1 µM.
Consider `COC(=O)N1CCN(C(=O)C2CC3(CC(NC(=O)NCc4ccc(OC)cc4)C3)C2)CC1` (stereo not drawn) [Compound 231, methyl 4-(6-(3-(4-methoxybenzyl)ureido)spiro[3.3]heptane-2-carbonyl)piperazine-1-carboxylate], for which the EC50 worked out at 7.8 µM. Besides, the “AC1.4 Human” value under setting [1] came to 0.5 µM.
Regarding `CN(C(=O)CCCCCNC(=O)NCc1ccc(Cl)cc1)c1cccnc1` [Compound 270, 6-(3-(4-chlorobenzyl)ureido)-N-methyl-N-(pyridin-3-yl)hexanamide], the “AC1.4 Human” value under setting [1] turned out to be 1.1 µM. Further, the EC50 under setting [2] amounted to 3.9 µM.
For `COc1ccc(CNC(=O)NC2CC3(C2)CC(C(=O)NCc2cccnc2)C3)cc1` (stereo not drawn) [Compound 49, 6-(3-(4-methoxybenzyl)ureido)-N-(pyridin-3-ylmethyl)spiro[3.3]heptane-2-carboxamide], in that order: 6.6 µM and 46.8 µM.
Turning to `COc1ccc(CNC(=O)NC2CC3(C2)CN(C(=O)c2cccc(-n4cccc4)c2)C3)cc1` [Compound 189, 1-(2-(3-(1H-pyrrol-1-yl)benzoyl)-2-azaspiro[3.3]heptan-6-yl)-3-(4-methoxybenzyl)urea], the “AC1.4 Human” value under setting [1] amounted to 1.4 µM. The EC50 under setting [2] turned out to be 21.3 µM.
For `Cc1ccccc1N(C)C(=O)CCCCCNC(=O)NCc1ccc(Cl)cc1` [Compound 266, 6-(3-(4-chlorobenzyl)ureido)-N-methyl-N-(o-tolyl)hexanamide], in that order: 0.5 µM and 1.8 µM.
For `Cc1ccc(C(=O)N2CC3(CC(NC(=O)NCc4ccc(C(N)=O)cc4)C3)C2)cn1` [Compound 225, 4-((3-(2-(6-methylnicotinoyl)-2-azaspiro[3.3]heptan-6-yl)ureido)methyl)benzamide], in that order: 2.0 µM and 50.8 µM.
Regarding `O=C(NCCCCC1CCN(C(=O)C2CCOCC2)CC1)NCc1ccc(Cl)cc1` [Compound 300, 1-(4-chlorobenzyl)-3-(4-(1-(tetrahydro-2H-pyran-4-carbonyl)piperidin-4-yl)butyl)urea], under setting [1], the “AC1.4 Human” value stood at 1.4 µM. Further, the EC50 under setting [2] is 6.5 µM.
Consider `CC(C)(C)OC(=O)N1CCC2(CC1)CC2CNC(=O)NCc1ccncc1` (stereo not drawn) [Compound 25, tert-butyl 1-((3-(pyridin-4-ylmethyl)ureido)methyl)-6-azaspiro[2.5]octane-6-carboxylate], for which the “AC1.4 Human” value under setting [1] stood at 5.0 µM. For the same compound, the EC50 under setting [2] is 27.4 µM.
For `COc1ccc(CNC(=O)NC2CC3(C2)CN(C(=O)c2cccc(C(C)(C)O)c2)C3)cc1` [Compound 175, 1-(2-(3-(2-hydroxypropan-2-yl)benzoyl)-2-azaspiro[3.3]heptan-6-yl)-3-(4-methoxybenzyl)urea], in that order: 5.5 µM and 55.1 µM.
For `O=C(NCc1ccncc1)NC1CC2(C1)CC(NC(=O)c1ccccc1)C2` (stereo not drawn) [Compound 15, N-(6-(3-(pyridin-4-ylmethyl)ureido)spiro[3.3]heptan-2-yl)benzamide], in that order: 10.4 µM and 17.7 µM.
For `COc1ccc(CNC(=O)NC2CC3(C2)CC(C(=O)N2CCCc4ccc(C)cc42)C3)cc1` (stereo not drawn) [Compound 108, 1-(4-methoxybenzyl)-3-(6-(7-methyl-1,2,3,4-tetrahydroquinoline-1-carbonyl)spiro[3.3]heptan-2-yl)urea], in that order: 0.1 µM and 1.4 µM.
In the case of `O=C(NCCCCC1CCN(c2nn[nH]n2)CC1)NCc1ccc(Cl)cc1` [Compound 318, 1-(4-(1-(2H-tetrazol-5-yl)piperidin-4-yl)butyl)-3-(4-chlorobenzyl)urea], the “AC1.4 Human” value under setting [1] is 3.9 µM. The EC50 under setting [2] was determined as 8.8 µM.
On to `COc1ccc(CNC(=O)NC2CC3(C2)CC(c2nnc(-c4ccccc4)o2)C3)cc1` (stereo not drawn) [Compound 325, 1-(4-Methoxybenzyl)-3-(6-(5-phenyl-1,3,4-oxadiazol-2-yl)spiro[3.3]heptan-2-yl)urea], for which the “AC1.4 Human” value under setting [1] was 2.4 µM. Also, the EC50 under setting [2] is 30.6 µM.
For the compound `COc1ccc(CNC(=O)NC2CC3(C2)CN(C(=O)Cc2ccccc2Cl)C3)cc1` [Compound 39, 1-(2-(2-(2-chlorophenyl)acetyl)-2-azaspiro[3.3]heptan-6-yl)-3-(4-methoxybenzyl)urea], the “AC1.4 Human” value under setting [1] is 5.6 µM. Besides, the EC50 under setting [2] is 41.9 µM.
For `O=C(NCc1ccc(Cl)cc1)NC1CC2(C1)CN(C(=O)c1cccc(-n3cccc3)c1)C2` [Compound 219, 1-(2-(3-(1H-pyrrol-1-yl)benzoyl)-2-azaspiro[3.3]heptan-6-yl)-3-(4-chlorobenzyl)urea], in that order: 2.9 µM and 5.2 µM.
For `CC(C)c1cccc(C(=O)N2CC3(CC(NC(=O)NCc4ccc(Cl)cc4)C3)C2)c1` [Compound 220, 1-(4-chlorobenzyl)-3-(2-(3-isopropylbenzoyl)-2-azaspiro[3.3]heptan-6-yl)urea], in that order: 3.6 µM and 4.7 µM.
For `COc1ccc(CNC(=O)NC2CC3(C2)CN(C(=O)c2cccc(N4CCCC4=O)c2)C3)cc1` [Compound 188, 1-(4-methoxybenzyl)-3-(2-(3-(2-oxopyrrolidin-1-yl)benzoyl)-2-azaspiro[3.3]heptan-6-yl)urea], in that order: 0.9 µM and 13.4 µM.
`O=C(NCc1ccc(Cl)cc1)N[C@H]1C[C@]2(CCN(c3ncccn3)C2)C1` [Compound 170, 1-(4-chlorobenzyl)-3-((2s,4r)-6-(pyrimidin-2-yl)-6-azaspiro[3.4]octan-2-yl)urea]: the “AC1.4 Human” value under setting [1] is 15.1 µM. In addition, under setting [2], the EC50 is 46.9 µM.
For `COc1ccc(CNC(=O)NC2CC3(C2)CC(C(=O)N2CCN(C4COC4)CC2)C3)cc1` (stereo not drawn) [Compound 111, 1-(4-methoxybenzyl)-3-(6-(4-(oxetan-3-yl)piperazine-1-carbonyl)spiro[3.3]heptan-2-yl)urea], in that order: 1.0 µM and 26.8 µM.
As for `CC(C)(C(=O)N1CC2(CC(NC(=O)NCc3ccc(Cl)cc3)C2)C1)c1ccccc1` [Compound 221, 1-(4-chlorobenzyl)-3-(2-(2-methyl-2-phenylpropanoyl)-2-azaspiro[3.3]heptan-6-yl)urea], the EC50 was found to be 4.6 µM. For the same compound, under setting [1], the “AC1.4 Human” value amounted to 1.1 µM.
Regarding `CC1CCC(=O)N1CC1CC2(C1)CC(NC(=O)NCc1ccc(Cl)cc1)C2` (stereo not drawn) [Compound 241, 1-(4-chlorobenzyl)-3-(6-((2-methyl-5-oxopyrrolidin-1-yl)methyl)spiro[3.3]heptan-2-yl)urea], under setting [1], the “AC1.4 Human” value amounted to 2.7 µM. Under setting [2], the EC50 is 5.7 µM.
With `COc1ccc(CNC(=O)NC2CC3(C2)CN(C(=O)c2cccc(O)c2)C3)cc1` [Compound 177, 1-(2-(3-hydroxybenzoyl)-2-azaspiro[3.3]heptan-6-yl)-3-(4-methoxybenzyl)urea], the EC50 turned out to be 11.2 µM. Under setting [1], the “AC1.4 Human” value was found to be 2.8 µM.
For `COc1ccc(CNC(=O)NC2CC3(C2)CC(C(=O)N[C@@H](C)c2ccccc2)C3)cc1` (stereo partly drawn) [Compound 47, (S)-6-(3-(4-methoxybenzyl)ureido)-N-(1-phenylethyl)spiro[3.3]heptane-2-carboxamide], in that order: 40.6 µM and 6.5 µM.
